Among the test systems are SW-620 colon; HT29 colon; IGROV1 ovarian; SF-539 CNS; OVCAR-8 ovarian; SF-268 CNS; OVCAR-5 ovarian; K-562 leukemia; MOLT-4 leukemia; TK-10 renal.
Holding throughout (assay): DTP human tumour cell line panel, 48 h

Molecules are shown by their SMILES.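 How tested: cells in 96-well plates exposed to compound for 48 hours at five concentrations. GI50 is the concentration that inhibits growth by half. TGI marks complete inhibition of growth.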 Bounds are passed on as bounds.

Turning to `CCCCCCCC(=O)SCC/C=C/[C@@H]1CC(=O)NCc2cccc(n2)CN(Cc2ccc(Cl)cc2)CC(=O)N[C@@H](C(C)C)C(=O)O1`, the GI50 (commonly the concentration at which growth is held to half of that of the control) is 18 µM in the assay on SW-620 colon; 4.3 µM in the assay with HT29 colon; 7.02 µM in the assay with IGROV1 ovarian; 16.3 µM with SF-539 CNS; 9.1 µM with OVCAR-8 ovarian; 20 µM in the assay with SF-268 CNS. Further, the GI50 was 9.98 µM in the assay on OVCAR-5 ovarian, 11 µM in the assay on K-562 leukemia, 3.21 µM with MOLT-4 leukemia and 2.81 µM with TK-10 renal. Moreover, the TGI in the assay on SW-620 colon, with HT29 colon, with IGROV1 ovarian, with SF-539 CNS, with OVCAR-8 ovarian and with SF-268 CNS was more than 100 µM in each case. The TGI (in general, the concentration giving total growth inhibition) in the assay on OVCAR-5 ovarian was more than 100 µM; with K-562 leukemia, more than 100 µM; with MOLT-4 leukemia, more than 100 µM; with TK-10 renal, 23.6 µM.

As to `O=c1c2ccccc2oc2nccnc12`, the TGI with SW-620 colon, in the assay with HT29 colon, with IGROV1 ovarian, in the assay on SF-539 CNS, in the assay on OVCAR-8 ovarian and with SF-268 CNS was more than 100 µM each time. Also, the TGI in the assay on OVCAR-5 ovarian, in the assay with K-562 leukemia, in the assay on MOLT-4 leukemia and with TK-10 renal was more than 100 µM throughout.

For the molecule `O=C(/C=C(\O)C(=O)O)/C=C(\O)c1ccc(Cl)cc1`, the concentration for total growth inhibition (TGI) in the assay with SW-620 colon, in the assay on HT29 colon, in the assay on IGROV1 ovarian, in the assay on SF-539 CNS, in the assay on OVCAR-8 ovarian and with SF-268 CNS was more than 100 µM throughout. The TGI in the assay on OVCAR-5 ovarian, in the assay on K-562 leukemia, in the assay with MOLT-4 leukemia and with TK-10 renal was more than 100 µM each time.

As to `CCOC(=O)C(=C=Cc1cccs1)C(=O)c1ccccc1`, the TGI was 31.9 µM in the assay with SW-620 colon; 34.5 µM with HT29 colon; 34.6 µM with IGROV1 ovarian; 30.6 µM with SF-539 CNS; 29.3 µM with OVCAR-8 ovarian; 33.2 µM in the assay on SF-268 CNS. In addition, the TGI with OVCAR-5 ovarian was 28.5 µM; in the assay with K-562 leukemia, more than 100 µM; with MOLT-4 leukemia it was 48.5 µM; in the assay with TK-10 renal, 28.5 µM.

For the molecule `Cc1cc(C)cc(NC(=O)CCC(=O)C2CCC/C2=N\NC(=O)C(=O)NN)c1` (stereo not given), the concentration for total growth inhibition (TGI) in the assay on SW-620 colon, in the assay with HT29 colon, with IGROV1 ovarian, in the assay on SF-539 CNS, with OVCAR-8 ovarian and in the assay on SF-268 CNS was more than 100 µM in each case. Also, the concentration for total growth inhibition (TGI) with OVCAR-5 ovarian, in the assay on K-562 leukemia, with MOLT-4 leukemia and with TK-10 renal was more than 100 µM throughout.

Take `COc1ccc2c(c1)C(CCN)C(=O)N2` (stereo not given): the TGI with SW-620 colon, in the assay on HT29 colon, with IGROV1 ovarian, in the assay on SF-539 CNS, in the assay with OVCAR-8 ovarian and in the assay on SF-268 CNS was more than 100 µM throughout. In addition, the total growth inhibition concentration (TGI) with OVCAR-5 ovarian, in the assay with K-562 leukemia, in the assay with MOLT-4 leukemia and in the assay on TK-10 renal was more than 100 µM in each case.

With `COc1ccc(-c2ccc(/C=N/n3cnn(CN4CCN(C)CC4)c3=S)o2)c([N+](=O)[O-])c1`, the GI50 in the assay with SW-620 colon is 31.6 µM; in the assay with HT29 colon, 28.4 µM; in the assay with IGROV1 ovarian, 54.7 µM; in the assay on SF-539 CNS, 17 µM; in the assay on OVCAR-8 ovarian, 18.9 µM; in the assay on SF-268 CNS, 23.6 µM. Further, the GI50 is 34 µM in the assay on OVCAR-5 ovarian, 33.6 µM in the assay on K-562 leukemia, 31.2 µM with MOLT-4 leukemia and 36.4 µM in the assay on TK-10 renal. For the same molecule, the TGI is more than 100 µM in the assay on SW-620 colon; more than 100 µM in the assay with HT29 colon; more than 100 µM with IGROV1 ovarian; 34.1 µM in the assay on SF-539 CNS; 55.5 µM with OVCAR-8 ovarian; 69.5 µM in the assay on SF-268 CNS. For the same molecule, the TGI in the assay with OVCAR-5 ovarian, in the assay on K-562 leukemia, with MOLT-4 leukemia and with TK-10 renal was more than 100 µM throughout.

In the case of `c1cc(C2O[C@H]3CCCN3[C@@H]2c2ccncc2)ccn1` (stereo not given in full), the TGI with SW-620 colon, with HT29 colon, in the assay on IGROV1 ovarian, with SF-539 CNS, in the assay on OVCAR-8 ovarian and in the assay with SF-268 CNS was more than 100 µM each time. Moreover, the TGI with OVCAR-5 ovarian, in the assay on K-562 leukemia, in the assay on MOLT-4 leukemia and with TK-10 renal was more than 100 µM throughout.

As for `N=C(N)c1ccc(-c2ccc(-c3ccco3)o2)cc1`, the GI50 with SW-620 colon is 1.92 µM; in the assay on HT29 colon, 2.78 µM; in the assay with IGROV1 ovarian it was 4.38 µM; with SF-539 CNS, 8.96 µM; in the assay on OVCAR-8 ovarian it was 8.22 µM; with SF-268 CNS, 4.85 µM. The GI50 in the assay with OVCAR-5 ovarian was 4.98 µM; with K-562 leukemia, 2.66 µM; in the assay on MOLT-4 leukemia it was 3.26 µM; in the assay on TK-10 renal it was 4.33 µM. The TGI in the assay with SW-620 colon amounted to 4.09 µM; in the assay on HT29 colon it was 8.47 µM; in the assay with IGROV1 ovarian it was 16.7 µM; in the assay with SF-539 CNS it was 21.5 µM; in the assay on OVCAR-8 ovarian, 30.7 µM; in the assay with SF-268 CNS it was 18.7 µM. The concentration for total growth inhibition (TGI) in the assay with OVCAR-5 ovarian worked out at 18.8 µM; in the assay with K-562 leukemia, 10.4 µM; in the assay on MOLT-4 leukemia, 10.8 µM; in the assay with TK-10 renal, 15.6 µM.

With `COC(=O)c1nc(N)[nH]c(=O)c1-c1ccc(Cl)cc1`, the concentration for total growth inhibition (TGI) with SW-620 colon, in the assay with HT29 colon, with IGROV1 ovarian, in the assay with SF-539 CNS, in the assay with OVCAR-8 ovarian and with SF-268 CNS was more than 100 µM each time. Moreover, the total growth inhibition concentration (TGI) in the assay with OVCAR-5 ovarian, in the assay on K-562 leukemia, in the assay on MOLT-4 leukemia and with TK-10 renal was more than 100 µM throughout.

Regarding `CC(=O)OC1CC[C@@]2(C)C(CC(OC3OC(CO)C(O)C(O)C3O)[C@]3(C)C2CCC24CC23CC[C@H]4C(C)CC(O)[C@@H](O)C(C)(C)O)C1(C)C` (stereo not given in full), the TGI with SW-620 colon is 45.1 µM; in the assay on HT29 colon, more than 50 µM; with IGROV1 ovarian it was 22.1 µM; in the assay with SF-539 CNS, 19.1 µM; in the assay on OVCAR-8 ovarian it was more than 50 µM; in the assay with SF-268 CNS, more than 50 µM. The TGI was more than 50 µM in the assay on OVCAR-5 ovarian, 43.4 µM in the assay with K-562 leukemia, 24.7 µM in the assay with MOLT-4 leukemia and more than 50 µM in the assay with TK-10 renal.

The record behind these values is PubChem BioAssay (NCI).
